Source: US20240228487A1, “FUSED HETEROCYCLIC COMPOUND AND APPLICATION THEREOF, PHARMACEUTICAL COMPOSITIONS CONTAINING SAME AND APPLICATION THEREOF” (ZHEJIANG UNIVERSITY, priority 2021, published 2024)

Target: T1, human TRPM2 channels (Homo sapiens, UniProt O94759)
T1 construct: expressed in transfected cells
Assay: whole cell patch clamp, inhibition of TRPM2 channel current
Type: cell-based
Details: HEK293 cells stably expressing human TRPM2, 500 μM ADPR
Description: The fused heterocyclic compound of the present invention has an inhibitory effect on the TRPM2 channel, and its pharmacological activity is measured using whole cell patch clamp technology, the corresponding steps are as follows: Incubating HEK293 cells stably expressing human TRPM2 channels in DMEM/F-12 medium containing 10% bovine serum, 50 units/mL of penicillin and […] of streptomycin under the condition of 5% CO2 and 37° C. The cells before testing are stored in the extracellular fluid (147 mM NaCl, 2 mM KCl, 1 mM MgCl2, 2 mM CaCl2, 10 mM HEPES, 13 mM glucose, pH 7.4). The electrode is filled with the electrode internal solution (147 mM NaCl, 0.05 mM EGTA, 1 mM MgCl2, 10 mM HEPES, 0.5 mM ADPR, pH=7.3), and the resistance is maintained at 3-5 M Ω. Administering ADPR into cells through electrodes, and detecting the ADPR concentration used to activate TRPM2 as 500 μM, when detecting a stable current, perfusing the corresponding concentration of fused heterocyclic compound II-1 into the extracellular fluid for at least 60 seconds. record the change in current magnitude using voltage ramp mode, changing the voltage from −100 mV to+100 mV within 500 ms, with a normal clamp voltage of 0 mV and a TRPM every 5 seconds; finally, replacing the extracellular fluid with a solution with pH=5.0 to block the TRPM2 current, the electrophysiological current test results obtained are shown in Table 1, and the electrophysiological current graph obtained is shown in FIG. 1. Similarly, administering corresponding concentrations of other fused heterocyclic compounds (II-2˜II-54, III-1˜III-11) into the extracellular fluid, taking electrophysiological tests using the same method, the results are shown in Table 1. The electrophysiological representative current graphs of some fused heterocyclic compounds (II-9, II-19, and II-36) inhibiting TRPM2 channel current are shown in FIG. 1.

T1 sequence (O94759 whole entry): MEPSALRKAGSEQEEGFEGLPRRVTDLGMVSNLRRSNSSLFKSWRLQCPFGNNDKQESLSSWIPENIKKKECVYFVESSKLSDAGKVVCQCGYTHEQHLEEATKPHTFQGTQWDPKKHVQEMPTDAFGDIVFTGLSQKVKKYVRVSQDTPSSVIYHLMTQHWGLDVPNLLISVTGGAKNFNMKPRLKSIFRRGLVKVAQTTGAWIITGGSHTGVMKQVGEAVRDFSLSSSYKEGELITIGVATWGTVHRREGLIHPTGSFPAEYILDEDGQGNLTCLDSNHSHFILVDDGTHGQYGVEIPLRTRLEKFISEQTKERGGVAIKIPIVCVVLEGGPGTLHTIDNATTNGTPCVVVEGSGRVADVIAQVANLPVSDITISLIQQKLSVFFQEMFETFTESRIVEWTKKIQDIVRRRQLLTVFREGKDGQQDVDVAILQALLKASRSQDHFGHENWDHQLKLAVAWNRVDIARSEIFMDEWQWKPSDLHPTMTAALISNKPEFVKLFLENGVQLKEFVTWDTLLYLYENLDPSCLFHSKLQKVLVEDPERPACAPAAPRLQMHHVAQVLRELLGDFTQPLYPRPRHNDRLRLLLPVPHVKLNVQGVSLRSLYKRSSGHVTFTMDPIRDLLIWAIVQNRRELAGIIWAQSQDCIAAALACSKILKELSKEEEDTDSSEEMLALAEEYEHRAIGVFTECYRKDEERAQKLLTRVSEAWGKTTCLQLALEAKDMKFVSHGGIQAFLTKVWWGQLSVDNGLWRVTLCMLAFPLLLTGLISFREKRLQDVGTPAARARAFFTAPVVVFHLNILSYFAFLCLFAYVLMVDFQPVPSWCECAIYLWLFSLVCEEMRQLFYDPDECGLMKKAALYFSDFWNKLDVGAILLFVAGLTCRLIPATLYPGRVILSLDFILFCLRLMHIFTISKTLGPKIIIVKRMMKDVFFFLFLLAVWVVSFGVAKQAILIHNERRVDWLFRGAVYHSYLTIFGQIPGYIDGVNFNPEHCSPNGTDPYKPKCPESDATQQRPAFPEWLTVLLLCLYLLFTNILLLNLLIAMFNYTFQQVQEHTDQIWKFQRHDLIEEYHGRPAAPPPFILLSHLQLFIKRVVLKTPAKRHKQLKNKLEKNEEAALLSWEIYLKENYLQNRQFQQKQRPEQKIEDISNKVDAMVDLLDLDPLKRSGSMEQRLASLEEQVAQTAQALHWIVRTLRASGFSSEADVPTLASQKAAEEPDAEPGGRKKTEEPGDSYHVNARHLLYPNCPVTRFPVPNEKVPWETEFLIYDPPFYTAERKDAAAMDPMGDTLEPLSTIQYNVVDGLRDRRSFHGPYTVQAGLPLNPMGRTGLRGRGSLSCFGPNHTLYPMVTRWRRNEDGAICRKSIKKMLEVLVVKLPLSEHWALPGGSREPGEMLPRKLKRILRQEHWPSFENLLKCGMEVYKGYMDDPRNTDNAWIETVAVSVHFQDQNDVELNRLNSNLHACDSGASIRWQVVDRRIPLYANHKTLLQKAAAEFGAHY

For `CCN(CC)C(=O)c1cc(C(=O)c2ccccc2)n2cccc2c1` [II-23, 5-Benzoyl-N, N-diethylindolizine-7-formamide], the IC50 was 1 to 10 µM.
